# Test results taken from patent US20230017045A1, “PYRIDINE AND PYRIMIDINE CARBOXYLATE HERBICIDES AND METHODS OF USE THEREOF” (Dow AgroSciences LLC, priority 2017, published 2023).
# Where two headings read alike, the source gives them in different places.
# Test system: test plant species
# Assay: Post-emergent herbicidal activity test (greenhouse, foliar spray, visual growth reduction)
# Format: in vivo
# Settings: post-emergence, 336 h, 140 g ai/ha
# Protocol: Post-emergent Test: Seeds or nutlets of the desired test plant species were planted in Sun Gro Metro-Mix® 360 planting mixture, which typically has a pH of 6.0 to 6.8 and an organic matter content of about 30 percent, in plastic pots with a surface area of 64 square centimeters. In some aspects, to ensure good germination and healthy plants, a fungicide treatment and/or other chemical or physical treatment was applied. The plants were grown for 7-21 d in a greenhouse with an approximate 15 h photoperiod which was maintained at 23-29° C. during the day and 22-28° C. during the night. Nutrients and water were added on a regular basis and supplemental lighting was provided with overhead metal halide 1000-Watt lamps as necessary. Plants were used for testing when they reached the first or second true leaf stage. A weighed amount, determined by the highest rate to be tested, of each test compound was placed in a 25 mL glass vial and was dissolved in 4 mL of a 97:3 v/v mixture of acetone and DMSO to obtain concentrated stock solutions. […] The concentrated stock solutions obtained were diluted with 20 mL of an aqueous mixture containing acetone, water, isopropyl alcohol, DMSO, […] crop oil concentrate, and X-77 surfactant in a 48.5:39:10:1.5:1.0:0.02 v/v ratio to obtain spray solutions containing the application rate. Compound requirements are based upon a 12 mL application volume at a rate of 187 liters per hectare (L/ha). Formulated compounds were applied to the plant material with an overhead Mandel track sprayer equipped with […] nozzles calibrated to deliver 187 L/ha over an application area of 0.64 square meters at a spray height of 18 inches (43 cm) above the average plant canopy height. Control plants were sprayed in the same manner with the solvent blank. The treated plants and control plants were placed in a greenhouse as described above and watered by subirrigation to prevent wash-off of the test compounds. After 14 d, the condition of the test plants as compared with that of the nontreated and control plants was determined visually and scored on a scale of 0 to 100 percent where 0 corresponds to no injury and 100 corresponds to complete control. In the reporting of the results, Table A: Percent Growth Reduction Conversion Table was used.
# [1] = ALOMY: blackgrass (Alopecurus myosuroides), 14 days after application, read-out: Visual Growth Reduction (%) 14 Days After Application, ALOMY
# [2] = AMARE: redroot pigweed (Amaranthus retroflexus), 14 days after application, read-out: Visual Growth Reduction (%) 14 Days After Application, AMARE
# [3] = AVEFA: wild oat (Avena fatua), 14 days after application, read-out: Visual Growth Reduction (%) 14 Days After Application, AVEFA
# [4] = CHEAL: lambsquarters (Chenopodium album), 14 days after application, read-out: Visual Growth Reduction (%) 14 Days After Application, CHEAL
# [5] = CIRAR: canada thistle (Cirsium arvense), 14 days after application, read-out: Visual Growth Reduction (%) 14 Days After Application, CIRAR
# [6] = CYPES: yellow nutsedge (Cyperus esculentus), 14 days after application, read-out: Visual Growth Reduction (%) 14 Days After Application, CYPES
# [7] = DIGSA: crabgrass (Digitaria sanguinalis), 14 days after application, read-out: Visual Growth Reduction (%) 14 Days After Application, DIGSA
# [8] = ECHCG: barnyardgrass (Echinochloa crus-galli), 14 days after application, read-out: Visual Growth Reduction (%) 14 Days After Application, ECHCG
# [9] = IPOHE: ivy-leaf morning glory (Ipomoea hederacea), 14 days after application, read-out: Visual Growth Reduction (%) 14 Days After Application, IPOHE
# [10] = KCHSC: kochia (Bassia scoparia), 14 days after application, read-out: Visual Growth Reduction (%) 14 Days After Application, KCHSC
# [11] = ORYSA: rice (Oryza sativa), 14 days after application, read-out: Visual Growth Reduction (%) 14 Days After Application, ORYSA
# [12] = SETFA: giant foxtail (Setaria faberi), 14 days after application, read-out: Visual Growth Reduction (%) 14 Days After Application, SETFA
# [13] = SORVU: grain sorghum (Sorghum vulgare), 14 days after application, read-out: Visual Growth Reduction (%) 14 Days After Application, SORVU
# [14] = STEME: common chickweed (Stellaria media), 14 days after application, read-out: Visual Growth Reduction (%) 14 Days After Application, STEME
# [15] = TRZAS: wheat, spring (Triticum aestivum), 14 days after application, read-out: Visual Growth Reduction (%) 14 Days After Application, TRZAS
# [16] = blackgrass (Alopecurus myosuroides), 14 Days After Application, read-out: Visual Growth Reduction (%) ALOMY
# [17] = canada thistle (Cirsium arvense), 14 Days After Application, read-out: Visual Growth Reduction (%) CIRAR
# [18] = crabgrass (Digitaria sanguinalis), 14 Days After Application, read-out: Visual Growth Reduction (%) DIGSA
# [19] = lambsquarters (Chenopodium album), 14 Days After Application, read-out: Visual Growth Reduction (%) CHEAL
# [20] = redroot pigweed (Amaranthus retroflexus), 14 Days After Application, read-out: Visual Growth Reduction (%) AMARE
# [21] = wild oat (Avena fatua), 14 Days After Application, read-out: Visual Growth Reduction (%) AVEFA
# [22] = yellow nutsedge (Cyperus esculentus), 14 Days After Application, read-out: Visual Growth Reduction (%) CYPES
Compound,pest or weed control at 140 g/ha [1] [%],pest or weed control at 140 g/ha [2] [%],pest or weed control at 140 g/ha [3] [%],pest or weed control at 140 g/ha [4] [%],pest or weed control at 140 g/ha [5] [%],pest or weed control at 140 g/ha [6] [%],pest or weed control at 140 g/ha [7] [%],pest or weed control at 140 g/ha [8] [%],pest or weed control at 140 g/ha [9] [%],pest or weed control at 140 g/ha [10] [%],pest or weed control at 140 g/ha [11] [%],pest or weed control at 140 g/ha [12] [%],pest or weed control at 140 g/ha [13] [%],pest or weed control at 140 g/ha [14] [%],pest or weed control at 140 g/ha [15] [%],pest or weed control at 140 g/ha [16] [%],pest or weed control at 140 g/ha [18] [%],pest or weed control at 140 g/ha [19] [%],pest or weed control at 140 g/ha [20] [%],pest or weed control at 140 g/ha [21] [%],other results
"COC(=O)c1nc(-c2ccc(C#N)cc2Cl)ccc1Cl [F59, methyl 3-chloro-6-(2-chloro-4-cyanophenyl)picolinate]",0 to 29,85 to 94,0 to 29,60 to 74,30 to 44,0 to 29,60 to 74,45 to 59,95 to 100,45 to 59,0 to 29,45 to 59,75 to 84,0 to 29,0 to 29,,,,,,
"COC(=O)c1nc(-c2c(Cl)cc(C(F)(F)F)cc2C#N)ccc1Cl [F118, Methyl 3-chloro-6-(2-chloro-6-cyano-4-(trifluoromethyl)phenyl)picolinate]",30 to 44,95 to 100,60 to 74,95 to 100,95 to 100,45 to 59,85 to 94,85 to 94,95 to 100,95 to 100,60 to 74,60 to 74,85 to 94,0 to 29,0 to 29,,,,,,
"COC(=O)c1nc(-c2ccc(Cl)cc2)cc(Cl)c1Cl [F80, Methyl 3,4-dichloro-6-(4-chlorophenyl) picolinate]",0 to 29,60 to 74,0 to 29,30 to 44,0 to 29,0 to 29,0 to 29,0 to 29,45 to 59,,0 to 29,0 to 29,0 to 29,0 to 29,0 to 29,,,,,,
"COCC(F)(F)c1ccc(-c2ccc(Cl)c(C(=O)OC)n2)c(Cl)c1 [F177, methyl 3-chloro-6-(2-chloro-4-(1,1-difluoro-2-methoxyethyl)phenyl)picolinate]",0 to 29,0 to 29,0 to 29,60 to 74,45 to 59,0 to 29,0 to 29,0 to 29,60 to 74,45 to 59,0 to 29,0 to 29,30 to 44,0 to 29,0 to 29,,,,,,
"COC(=O)c1nc(-c2cc(F)c(C(F)(F)F)cc2F)c(Cl)cc1Cl [F325, Methyl 3,5-dichloro-6-(2,5-difluoro-4-(trifluoromethyl)phenyl)picolinate]",,,,,,,,0 to 29,95 to 100,0 to 29,0 to 29,30 to 44,85 to 94,0 to 29,0 to 29,0 to 29,75 to 84,95 to 100,60 to 74,0 to 29,pest or weed control at 140 g/ha [17]: 85 to 94%; pest or weed control at 140 g/ha [22]: 0 to 29%
"COC(=O)c1nc(-c2ccc(C(F)(F)F)c(Br)c2Cl)c(F)cc1Cl [F341, Methyl 6-(3-bromo-2-chloro-4-(trifluoromethyl)phenyl)-3-chloro-5-fluoropicolinate]",,,,,,,,0 to 29,95 to 100,60 to 74,0 to 29,85 to 94,95 to 100,30 to 44,45 to 59,30 to 44,85 to 94,85 to 94,95 to 100,45 to 59,pest or weed control at 140 g/ha [22]: 0 to 29%
"COC(=O)c1nc(-c2ccc(C(F)(F)F)cc2F)ncc1Cl [F312, Methyl 5-chloro-2-(2-fluoro-4-(trifluoromethyl)phenyl) pyrimidine-4-carboxylate]",,,,,,,,75 to 84,95 to 100,0 to 29,0 to 29,60 to 74,85 to 94,0 to 29,30 to 44,0 to 29,85 to 94,85 to 94,85 to 94,0 to 29,pest or weed control at 140 g/ha [17]: 85 to 94%; pest or weed control at 140 g/ha [22]: 45 to 59%
"O=C(O)c1nc(-c2ccc(C(F)(F)F)nc2Cl)ccc1Cl [F192, 2′,5-Dichloro-6′-(trifluoromethyl)-[2,3′-bipyridine]-6-carboxylic acid]",0 to 29,85 to 94,0 to 29,95 to 100,75 to 84,0 to 29,85 to 94,75 to 84,95 to 100,60 to 74,0 to 29,75 to 84,85 to 94,0 to 29,0 to 29,,,,,,
